From US6518041B1, “Hormone response element that binds an androgen and progesterone receptor” (Schering Aktiengesellschaft, priority 1998, dated 2003)

What was measured:
androgen receptor [1] = target: T1, androgen receptor (Homo sapiens, UniProt P10275); test: ARE17 luciferase reporter test system in PC-3/AR cells; format: cell-based
T1 construct: expressed in transfected cells; host or cells: PC-3 cells stably transformed with an androgen receptor expression vector (PC-3/AR)
T1 sequence (P10275 1-920): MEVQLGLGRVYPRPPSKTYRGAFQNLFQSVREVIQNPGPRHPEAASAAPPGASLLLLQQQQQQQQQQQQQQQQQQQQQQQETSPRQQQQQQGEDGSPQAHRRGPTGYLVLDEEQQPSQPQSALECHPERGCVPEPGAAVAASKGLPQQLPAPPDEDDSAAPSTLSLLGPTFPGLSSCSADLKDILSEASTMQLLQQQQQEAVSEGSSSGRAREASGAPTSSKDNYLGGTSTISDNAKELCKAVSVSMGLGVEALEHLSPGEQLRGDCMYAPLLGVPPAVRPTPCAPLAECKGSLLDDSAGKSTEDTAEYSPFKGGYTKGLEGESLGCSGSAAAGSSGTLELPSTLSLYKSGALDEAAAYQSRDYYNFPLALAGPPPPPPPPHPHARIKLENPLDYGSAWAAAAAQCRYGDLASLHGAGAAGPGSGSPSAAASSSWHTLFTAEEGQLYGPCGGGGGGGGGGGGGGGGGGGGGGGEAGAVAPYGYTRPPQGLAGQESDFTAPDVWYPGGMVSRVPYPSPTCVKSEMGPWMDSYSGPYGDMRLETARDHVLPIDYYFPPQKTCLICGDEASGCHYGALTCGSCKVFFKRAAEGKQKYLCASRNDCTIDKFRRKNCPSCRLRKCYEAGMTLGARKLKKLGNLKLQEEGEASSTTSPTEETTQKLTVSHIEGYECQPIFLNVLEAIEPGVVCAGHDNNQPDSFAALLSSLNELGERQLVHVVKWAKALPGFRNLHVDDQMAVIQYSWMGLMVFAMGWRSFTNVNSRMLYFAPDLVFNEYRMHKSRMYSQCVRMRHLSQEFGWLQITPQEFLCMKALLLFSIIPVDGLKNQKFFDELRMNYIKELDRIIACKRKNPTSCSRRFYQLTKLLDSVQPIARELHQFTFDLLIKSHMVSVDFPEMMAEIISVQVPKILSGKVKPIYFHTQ
Excerpt: Preferred is the use of the luciferase reporter gene and of PC-3 cells that have been transformed in advance in a stable manner with an expression vector for the androgen receptor (PC-3/AR cells) or in a transient parallel manner. In addition, the use of the TK minimal promoter is preferred. […] A progestin is a synthetic progesterone analog.
(§1) Test systems were compared that contained either an HRE according to the invention that corresponds to Seq. ID No. 1 (ARE17) or the consensus-HRE with the sequence (SEQ ID NO: 5) 5′-[…]-3′ (ARE). All other components were respectively the same. Copies of the ARE17 were introduced upstream from the TK minimal promoter and the luciferase gene in the pGL3-basic vector (FIG. 1). PC-3/AR cells, which already express the androgen receptor in a stable manner, were saturated in RPMI1640/10% cFS/L-glutamine for 18-24 hours and then transformed for five hours with 100 ng of reporter plasmid and the Fu-gene transfection reagent (Boehringer Mannheim). Then, the medium was replaced by RPM1640/5% cFCS/L-glutamine, and the activity of the reporter gene measured 42 hours later.
(§2) Four copies of the elements were introduced upstream from the TK minimal promoter and the luciferase gene in the pGL3-basic vector (FIG. 1) and transformed in the PC-3/AR-cells, which already express the androgen receptor in a stable manner, as described above. The stimulation was carried out with the synthetic androgen R1881 (10^−9M or 10^−7M final concentration).

androgen receptor [2] = target: T1, androgen receptor; test: consensus-HRE (ARE) luciferase reporter test system in PC-3/AR cells; format: cell-based
Excerpt: as §1, §2

Row | SMILES | induction of the luciferase activity (androgen receptor [1]; 2 copies of ARE17, TK minimal promoter, PC-3/AR cells, androgen receptor expression vector) [fold] | induction of the luciferase activity compared between ARE17, consensus-HRE and IDR17 (androgen receptor [1]; 4 copies of ARE17, R1881 10^-9 M or 10^-7 M) | increase of the luciferase activity (androgen receptor [1]; 4 copies of ARE17, TK minimal promoter, PC-3/AR cells) [fold] | difference in stimulation between the two R1881 concentrations (androgen receptor [1]; 4 copies, 10^-9 M versus 10^-7 M final concentration) | induction of the luciferase activity (in words) (androgen receptor [1]; ARE17, R1881 10^-7 M, measured 42 hours later) | induction of the luciferase activity compared between ARE17, consensus-HRE and IDR17 (androgen receptor [2]; 4 copies of consensus-HRE, R1881 10^-9 M or 10^-7 M) | stimulation of ARE17 in the absence of an androgen (androgen receptor [1]; 4 copies, no androgen) | stimulation of the consensus-HRE in the absence of an androgen (androgen receptor [2]; 4 copies, no androgen)
1 | C[C@]1(O)CC[C@H]2[C@@H]3CCC4=CC(=O)CCC4=C3C=C[C@@]21C [R1881] | 10.5 | strongest induction | 46 | No decisive difference | very strong induction | weakest stimulation |  | 
2 | CC(C)(O)C(=O)Nc1ccc([N+](=O)[O-])c(C(F)(F)F)c1 [hydroxyflutamide] |  |  |  |  |  |  | stimulated neither | stimulated neither
